Test system: A498 complex spheroids with HUVEC/MSC, growth
Experiment: Anticancer human tumor A498 cell line growth inhibition [AhR];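 note: seven day exposure starting three days after spheroid seeding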;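 for viability, T/C: luminescence signal used as a surrogate for viable cells; luminescence viability scaled so 100% equals DMSO vehicle wells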
Settings: for IC50: curve of first compound; for viability, T/C: stronger effect = lower value
Excerpt: Multicellular complex tumor spheroid response to aryl hydrocarbon receptor antagonists in combination with a variety of drugs and investigational agents in selected tumor cell lines
The current study was undertaken to assess response to aryl hydrocarbon receptor antagonists in combination with standard-of-care drugs and investigational agents in solid tumor complex spheroid models. Complex spheroids include a stromal component modeled by human endothelial cells (HUVEC) and fibroblasts modeled by human mesenchymal stem cells (MSCs). The concentration ranges selected for each drug and investigational agent were based upon clinically achievable concentrations if the clinical Cmax of the agent was known.
Compounds. The drugs and investigational agents: BAY 2416964 (NSC825713), GNF351 (NSC835774), CH-223191 (NSC835775), CPI-455 (NSC825282), aza-TdCyd (NSC777586), decitabine (NSC127716), belinostat (NSC758774), entinostat (NSC756642), pevonedistat (NSC761192), tazemetostat (NSC777109), talazoparib (NSC765396), olaparib (NSC753686), selinexor (NSC780203), nedisertib (M3814, NSC802822), bortezomib (NSC756655), venetoclax (NSC766270), doxorubicin (NSC123127), elimusertib (BAY189344, NSC800525), ceralasertib (AZD6738, NSC777638), TAK-243 (NSC785004), alisertib (NSC759677), etoposide (NSC141540), topotecan (NSC609699), eribulin (NSC707389), gemcitabine (NSC613327), carboplatin (NSC241240), cisplatin (NSC119875), and SN-38 (NSC673596) were obtained from the National Cancer Institute (NCI) Developmental Therapeutics Program Chemical Repository (32). The FDA-approved anticancer drug set is available from the Developmental Therapeutics Program at https://dtp.cancer.gov/organization/dscb/obtaining/available plates.htm. […] The stock solutions were prepared in dimethyl sulfoxide (DMSO, Sigma-Aldrich, St. Louis, MO, cat. D2650), except for the platinum compounds which were prepared in saline (Quality Biological, Gaithersburg, MD, cat. 114-055-101), at 800-fold the tested concentration and stored at -70 degrees C prior to their use. All drugs and investigational agents were tested over a range starting from a high concentration at or near the clinical Cmax and decreasing in half-log increments. If the clinical Cmax for an agent had not been determined, the highest concentration tested was 10 microM (Table 1).
Cell Culture. All cells were maintained in an incubator at 37 degrees C and 5% CO2 with 95% humidity. The PDC lines were cultured according to standard operating procedures established by the NCI PDMR (https://pdmr.cancer.gov). Briefly, all PDCs were thawed and cultured in Matrigel-coated flasks prepared with a working solution of 1X Ham's F-12 nutrient mix, without supplementation (Invitrogen, Waltham, MA, cat. 11765054), 100 U/mL penicillin-streptomycin (Invitrogen, cat. 15140122), and 2.5% Matrigel (Corning Inc., Corning, NY, cat. 354248) for the first three passages. All PDCs were cultured in complete DMEM/F-12 media containing advanced DMEM/F-12 (Invitrogen, cat. 12634028), 4.9% defined fetal bovine serum, heat inactivated (HyClone Laboratories Inc., Logan, UT, cat. SH30070.03HI), 389 ng/mL hydrocortisone (Sigma-Aldrich, cat. H4001), 9.7 ng/mL human EGF recombinant protein (Invitrogen, cat. PHG0313), 23.4 microg/mL adenine (Sigma-Aldrich, cat. A2786), 97.3 U/mL penicillin-streptomycin (Invitrogen, cat. 15140122), 1.9 mM L-glutamine (Invitrogen, cat. 25030081), and 9.7 microM Y-27632 dihydrochloride (Tocris Bioscience, Bristol, United Kingdom, cat. 1254). The PDCs were cultured in complete DMEM/F12 media without 10 microM Y-27632 dihydrochloride for at least two passages prior to the screen. The established cell lines NCI-H1341 and […] were cultured in DMEM/F-12, HEPES (Invitrogen, cat. 11330032), 5% defined fetal bovine serum (HyClone Laboratories Inc., cat. SH30070.03), ITS premix universal culture supplement [insulin (5 microg/mL), transferrin (5 microg/mL), and selenious acid (5 ng/mL)] […]

CCc1c2c(nc3ccc(O)cc13)-c1cc3c(c(=O)n1C2)COC(=O)[C@]3(O)CC + CC(CO)NC(=O)c1cc(-c2ccc(Cl)cc2)nn(-c2cnn(C)c2)c1=O
IC50 (second compound 0.1 µM): 0.0192 µM
IC50 (second compound 0.316 µM): 0.016 µM
IC50 (second compound 1 µM): 0.019 µM
IC50 (second compound 3.16 µM): 0.016 µM
IC50 (second compound 10 µM): 0.00473 µM
viability, T/C (second compound 0.1 µM, first compound 0.000949 µM): 77.1%
viability, T/C (second compound 0.1 µM, first compound 0.003 µM): 77.9%
viability, T/C (second compound 0.1 µM, first compound 0.00949 µM): 61.7%
viability, T/C (second compound 0.1 µM, first compound 0.03 µM): 42.4%
viability, T/C (second compound 0.1 µM, first compound 0.0949 µM): 37.3%
viability, T/C (second compound 0.1 µM, first compound 0.3 µM): 33.1%
viability, T/C (second compound 0.316 µM, first compound 0.000949 µM): 70.8%
viability, T/C (second compound 0.316 µM, first compound 0.003 µM): 70.9%
viability, T/C (second compound 0.316 µM, first compound 0.00949 µM): 57.8%
viability, T/C (second compound 0.316 µM, first compound 0.03 µM): 40.7%
viability, T/C (second compound 0.316 µM, first compound 0.0949 µM): 36.4%
viability, T/C (second compound 0.316 µM, first compound 0.3 µM): 36.7%
viability, T/C (second compound 1 µM, first compound 0.000949 µM): 69.8%
viability, T/C (second compound 1 µM, first compound 0.003 µM): 72.3%
viability, T/C (second compound 1 µM, first compound 0.00949 µM): 62.6%
viability, T/C (second compound 1 µM, first compound 0.03 µM): 41.6%
viability, T/C (second compound 1 µM, first compound 0.0949 µM): 35.5%
viability, T/C (second compound 1 µM, first compound 0.3 µM): 34.1%
viability, T/C (second compound 3.16 µM, first compound 0.000949 µM): 58.8%
viability, T/C (second compound 3.16 µM, first compound 0.003 µM): 63.1%
viability, T/C (second compound 3.16 µM, first compound 0.00949 µM): 58.3%
viability, T/C (second compound 3.16 µM, first compound 0.03 µM): 39.8%
viability, T/C (second compound 3.16 µM, first compound 0.0949 µM): 30.5%
viability, T/C (second compound 3.16 µM, first compound 0.3 µM): 33.8%
viability, T/C (second compound 10 µM, first compound 0.000949 µM): 51.2%
viability, T/C (second compound 10 µM, first compound 0.003 µM): 53.3%
viability, T/C (second compound 10 µM, first compound 0.00949 µM): 46.6%
viability, T/C (second compound 10 µM, first compound 0.03 µM): 36.4%
viability, T/C (second compound 10 µM, first compound 0.0949 µM): 29.3%
viability, T/C (second compound 10 µM, first compound 0.3 µM): 31.8%

Nc1ccn(C2OC(CO)C(O)C2(F)F)c(=O)n1 (stereo not given) + CC(CO)NC(=O)c1cc(-c2ccc(Cl)cc2)nn(-c2cnn(C)c2)c1=O
IC50 (second compound 0.1 µM): < 0.0316 µM
IC50 (second compound 0.316 µM): < 0.0316 µM
IC50 (second compound 1 µM): < 0.0316 µM
IC50 (second compound 3.16 µM): < 0.0316 µM
IC50 (second compound 10 µM): < 0.0316 µM
viability, T/C (second compound 0.1 µM, first compound 0.0316 µM): 26.1%
viability, T/C (second compound 0.1 µM, first compound 0.1 µM): 25.7%
viability, T/C (second compound 0.1 µM, first compound 0.316 µM): 24.6%
viability, T/C (second compound 0.1 µM, first compound 1 µM): 35.1%
viability, T/C (second compound 0.1 µM, first compound 3.16 µM): 32.8%
viability, T/C (second compound 0.1 µM, first compound 10 µM): 29.9%
viability, T/C (second compound 0.316 µM, first compound 0.0316 µM): 27.5%
viability, T/C (second compound 0.316 µM, first compound 0.1 µM): 25.8%
viability, T/C (second compound 0.316 µM, first compound 0.316 µM): 31%
viability, T/C (second compound 0.316 µM, first compound 1 µM): 32.3%
viability, T/C (second compound 0.316 µM, first compound 3.16 µM): 35%
viability, T/C (second compound 0.316 µM, first compound 10 µM): 28.3%
viability, T/C (second compound 1 µM, first compound 0.0316 µM): 25.6%
viability, T/C (second compound 1 µM, first compound 0.1 µM): 29.8%
viability, T/C (second compound 1 µM, first compound 0.316 µM): 32.1%
viability, T/C (second compound 1 µM, first compound 1 µM): 30.2%
viability, T/C (second compound 1 µM, first compound 3.16 µM): 34.4%
viability, T/C (second compound 1 µM, first compound 10 µM): 29.2%
viability, T/C (second compound 3.16 µM, first compound 0.0316 µM): 27.6%
viability, T/C (second compound 3.16 µM, first compound 0.1 µM): 26.1%
viability, T/C (second compound 3.16 µM, first compound 0.316 µM): 34.2%
viability, T/C (second compound 3.16 µM, first compound 1 µM): 33.7%
viability, T/C (second compound 3.16 µM, first compound 3.16 µM): 29.6%
viability, T/C (second compound 3.16 µM, first compound 10 µM): 27.8%
viability, T/C (second compound 10 µM, first compound 0.0316 µM): 33.2%
viability, T/C (second compound 10 µM, first compound 0.1 µM): 30.1%
viability, T/C (second compound 10 µM, first compound 0.316 µM): 27%
viability, T/C (second compound 10 µM, first compound 1 µM): 29.5%
viability, T/C (second compound 10 µM, first compound 3.16 µM): 27.5%
viability, T/C (second compound 10 µM, first compound 10 µM): 24.1%

— PubChem BioAssay AID1919007 (Molecular Pharmacology Branch, DTP, NCI, 2023)
